Assay results from patent US20200000772A1, “CENICRIVIROC COMBINATION THERAPY FOR THE TREATMENT OF FIBROSIS” (Tobira Therapeutics, Inc., priority 2014, published 2020).
Counter-ions that a name gives are not always drawn.

Tests used:
[1] = tested on: HIV-1 infected adult subjects; test: Study 202 biomarkers of inflammation; assay type: in vivo, human
Method: As an exploratory analysis, levels of inflammation biomarkers MCP-1, sCD14, high sensitivity C-reactive protein [hs-CRP], interleukin-6 [IL-6], D-dimer, and fibrinogen) were measured. Baseline values and changes from baseline at Week 24 and Week 48 of MCP-1, sCD14, hs-CRP, IL-6, D-dimer, and fibrinogen are summarized in Table 22.
The sCD14 samples were originally analyzed in 2 separate batches: Batch 1 included samples leading up to the Week 24 primary analysis and Batch 2 included Week 32 and Week 48 (end of study) samples. A repeat analysis of archived samples all analyzed in one batch was conducted for consistency in analysis across time points. To control for the effects of covariates, a linear mixed-model repeated-measures analysis was conducted on the changes from baseline in sCD14 (analysis dated September 2013).

[2] = tested on: adults with CCR5 tropic HIV-1; test: Study 202 post-hoc APRI and FIB-4 fibrosis index scores; assay type: in vivo, human
Method: APRI and FIB-4 scores were calculated. Change in score category from baseline (BL) to Weeks 24 and 48 was assessed in patients with non-missing data. Correlations between changes from BL in APRI and FIB-4 scores, and MCP-1 (CCR2 ligand) and sCD14 (inflammatory biomarker) levels were evaluated.

[3] = Phase 1 CVC and pioglitazone co-administration PK and safety study; assay type: in vivo, healthy subjects; settings: CVC 150 mg QD and PGZ 45 mg QD
Method: Plasma samples were collected prior to each dose and over 24 hours at the end of each treatment period. Cmax, Cmin, tmax, and AUC0-tau were determined using non-compartmental methods. Geometric means, GMRs and CIs were calculated.

[4] = Solubility of cenicriviroc mesylate; assay type: physicochemical
Text: In one embodiment, the acid addition salt of cenicriviroc is cenicriviroc mesylate, e.g., (S)-8-[4-(2-Butoxyethoxy)phenyl]-1-isobutyl-N-(4-{[(1-propyl-1H-imidazol-5-yl)methyl]sulfinyl}phenyl)-1,2,3,4-tetrahydro-1-benzazocine-5-carboxamide monomethanesulfonoate. In one embodiment, the cenicriviroc mesylate is a crystalline material, such as a pale greenish-yellow crystalline powder.

## O=C1Nc2ccc(Cl)cc2[C@@](C#CC2CC2)(C(F)(F)F)O1 [EFV, efavirenz, reference compound]
[1]; CVC 100 mg and 200 mg, EFV, up to Week 48
  plasma MCP-1 over time: remained at baseline values
[1]; EFV 600 mg
  D-dimer Changes from baseline at Week 24, Mean: -53 ng/mL
  D-dimer Changes from baseline at Week 24, Median: -26 ng/mL
  D-dimer Changes from baseline at Week 48, Mean: -34 ng/mL
  D-dimer Changes from baseline at Week 48, Median: 0.0 ng/mL
  Fibrinogen Changes from baseline at Week 24, Mean: -28 mg/dL
  Fibrinogen Changes from baseline at Week 24, Median: -31 mg/dL
  Fibrinogen Changes from baseline at Week 48, Mean: -30 mg/dL
  Fibrinogen Changes from baseline at Week 48, Median: -22 mg/dL
  IL-6 Changes from baseline at Week 24, Mean: -8.72 pg/mL
  IL-6 Changes from baseline at Week 24, Median: 0.00 pg/mL
  IL-6 Changes from baseline at Week 48, Mean: -13.11 pg/mL
  IL-6 Changes from baseline at Week 48, Median: 0.00 pg/mL
  MCP-1 Changes from baseline at Week 24, Mean: -44 pg/mL
  MCP-1 Changes from baseline at Week 24, Median: -17 pg/mL
  MCP-1 Changes from baseline at Week 48, Mean: 4.2 pg/mL
  MCP-1 Changes from baseline at Week 48, Median: 33.6 pg/mL
  hs-CRP Changes from baseline at Week 24, Mean: -0.46 mg/dL
  hs-CRP Changes from baseline at Week 24, Median: -0.01 mg/dL
  hs-CRP Changes from baseline at Week 48, Mean: -0.71 mg/dL
  hs-CRP Changes from baseline at Week 48, Median: -0.03 mg/dL
[1]; EFV 600 mg, original values
  sCD14 Changes from baseline Week 32, Mean: 480000 pg/mL
  sCD14 Changes from baseline Week 32, Median: 170000 pg/mL
  sCD14 Changes from baseline at Week 12, Mean: 90000 pg/mL
  sCD14 Changes from baseline at Week 12, Median: 1.8e+07 pg/mL
  sCD14 Changes from baseline at Week 24, Mean: 230000 pg/mL
  sCD14 Changes from baseline at Week 24, Median: 130000 pg/mL
  sCD14 Changes from baseline at Week 48, Mean: 640000 pg/mL
  sCD14 Changes from baseline at Week 48, Median: 460000 pg/mL
[1]; both CVC treatment arms, EFV arm
  sCD14 over 48 weeks of treatment (linear mixed-model analysis of repeat sCD14 analysis): increase
[2]; Baseline
  subjects with APRI 0.5-1.5: 4%
  subjects with APRI <0.5: 96%
  subjects with FIB-4 <1.45: 100%
[2]; Week 24
  subjects with APRI <0.5: 100%
  subjects with APRI decreased 1 category from baseline: 5%
  subjects with FIB-4 <1.45: 100%
[2]; Week 48
  subjects with APRI <0.5: 100%
  subjects with APRI decreased 1 category from baseline: 6%
  subjects with FIB-4 1.45-3.25: 6%
  subjects with FIB-4 <1.45: 94%

## CCc1ccc(CCOc2ccc(CC3SC(=O)NC3=O)cc2)nc1 (centres unmarked) [PGZ, Pioglitazone, reference compound]
[3]
  Cmin on co-administration: remained unchanged
  steady-state Cmax and AUC0-tau on co-administration: modest decrease

## CCCCOCCOc1ccc(-c2ccc3c(c2)C=C(C(=O)Nc2ccc([S@@+]([O-])Cc4cncn4CCC)cc2)CCCN3CC(C)C)cc1 [cenicriviroc mesylate, (S)-8-[4-(2-Butoxyethoxy)phenyl]-1-isobutyl-N-(4-{[(1-propyl-1H-imidazol-5-yl)methyl]sulfinyl}phenyl)-1,2,3,4-tetrahydro-1-benzazocine-5-carboxamide monomethanesulfonoate]
[4]; 99.5% ethanol
  solubility: sparingly soluble
[4]; acetonitrile, 1-octanol, tetrahydrofuran
  solubility: slightly soluble
[4]; aqueous solution at pH 3
  solubility: sparingly soluble
[4]; aqueous solution from pH 1 to 2
  solubility: freely soluble
[4]; ethyl acetate and diethylether
  solubility: practically insoluble
[4]; glacial acetic acid, methanol, benzyl alcohol, dimethylsulfoxide, N,N-dimethylformamide
  solubility: freely soluble
[4]; pH 4 to 13 and in water
  solubility: practically insoluble
[4]; pyridine and acetic anhydride
  solubility: soluble
